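At the GI50, growth is halved. Definition used: TGI = concentration required for complete inhibition of growth.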
Legend:
Assay in all cases: DTP human tumour cell line panel, 384-well format
786-0 renal = test system: 786-0 renal
A498 renal = test system: A498 renal
A549 NSCLC = test system: A549 NSCLC
ACHN renal = test system: ACHN renal
BT-549 breast = test system: BT-549 breast
CAKI-1 renal = test system: CAKI-1 renal
CCRF-CEM leukemia = test system: CCRF-CEM leukemia
COLO 205 colon = test system: COLO 205 colon
DU-145 prostate = test system: DU-145 prostate
EKVX NSCLC = test system: EKVX NSCLC
HCC-2998 colon = test system: HCC-2998 colon
HCT-116 colon = test system: HCT-116 colon
HCT-15 colon = test system: HCT-15 colon
HL-60(TB) leukemia = test system: HL-60(TB) leukemia
HOP-62 NSCLC = test system: HOP-62 NSCLC
HOP-92 NSCLC = test system: HOP-92 NSCLC
HS 578T breast = test system: HS 578T breast
HT29 colon = test system: HT29 colon
IGROV1 ovarian = test system: IGROV1 ovarian
K-562 leukemia = test system: K-562 leukemia
KM12 colon = test system: KM12 colon
LOX IMVI melanoma = test system: LOX IMVI melanoma
M14 melanoma = test system: M14 melanoma
MALME-3M melanoma = test system: MALME-3M melanoma
MCF7 breast = test system: MCF7 breast
MDA-MB-231 breast = test system: MDA-MB-231 breast
MDA-MB-435 melanoma = test system: MDA-MB-435 melanoma
MDA-MB-468 breast = test system: MDA-MB-468 breast
MOLT-4 leukemia = test system: MOLT-4 leukemia
NCI-H226 lung = test system: NCI-H226 lung
NCI-H23 lung = test system: NCI-H23 lung
NCI-H322M lung = test system: NCI-H322M lung
NCI-H460 NSCLC = test system: NCI-H460 NSCLC
NCI-H522 lung = test system: NCI-H522 lung
NCI/ADR-RES ovarian = test system: NCI/ADR-RES ovarian
OVCAR-3 ovarian = test system: OVCAR-3 ovarian
OVCAR-4 ovarian = test system: OVCAR-4 ovarian
OVCAR-5 ovarian = test system: OVCAR-5 ovarian
OVCAR-8 ovarian = test system: OVCAR-8 ovarian
PC-3 prostate = test system: PC-3 prostate
RPMI-8226 leukemia = test system: RPMI-8226 leukemia
RXF 393 renal = test system: RXF 393 renal
SF-268 CNS = test system: SF-268 CNS
SF-295 CNS = test system: SF-295 CNS
SF-539 CNS = test system: SF-539 CNS
SK-MEL-28 melanoma = test system: SK-MEL-28 melanoma
SK-MEL-5 melanoma = test system: SK-MEL-5 melanoma
SK-OV-3 ovarian = test system: SK-OV-3 ovarian
SN12C renal = test system: SN12C renal
SNB-19 CNS = test system: SNB-19 CNS
SNB-75 CNS = test system: SNB-75 CNS
SW-620 colon = test system: SW-620 colon
T-47D breast = test system: T-47D breast
TK-10 renal = test system: TK-10 renal
U251 glioblastoma = test system: U251 glioblastoma
UACC-257 melanoma = test system: UACC-257 melanoma
UACC-62 melanoma = test system: UACC-62 melanoma
UO-31 renal = test system: UO-31 renal

Compound: N#Cc1c(Oc2ccc(F)c(NC(=O)Cc3cccc(C(F)(F)F)c3)c2)ccc2nc(NC(=O)C3CC3)sc12
- GI50 ([…]-0 renal): 913 nM
- TGI (786-0 renal): 7150 nM
- GI50 (A498 renal): 1700 nM
- TGI (A498 renal): 5200 nM
- GI50 (A549 NSCLC): 1870 nM
- TGI (A549 NSCLC): > 100000 nM
- GI50 (ACHN renal): 755 nM
- TGI (ACHN renal): > 100000 nM
- GI50 (BT-549 breast): 1320 nM
- TGI (BT-549 breast): > 100000 nM
- GI50 (CAKI-1 renal): 1140 nM
- TGI (CAKI-1 renal): 8630 nM
- GI50 (CCRF-CEM leukemia): 263 nM
- TGI (CCRF-CEM leukemia): 2970 nM
- GI50 (COLO 205 colon): 31.1 nM
- TGI (COLO 205 colon): 2640 nM
- GI50 (DU-145 prostate): 2770 nM
- TGI (DU-145 prostate): > 100000 nM
- GI50 (EKVX NSCLC): 3800 nM
- TGI (EKVX NSCLC): 35600 nM
- GI50 (HCC-2998 colon): 291 nM
- TGI (HCC-2998 colon): 7010 nM
- GI50 (HCT-116 colon): 158 nM
- TGI (HCT-116 colon): 1850 nM
- GI50 (HCT-15 colon): 401 nM
- TGI (HCT-15 colon): > 100000 nM
- GI50 (HL-60(TB) leukemia): 80.5 nM
- TGI (HL-60(TB) leukemia): 914 nM
- GI50 (HOP-62 NSCLC): 1700 nM
- TGI (HOP-62 NSCLC): > 100000 nM
- GI50 (HOP-92 NSCLC): 783 nM
- TGI (HOP-92 NSCLC): 2250 nM
- GI50 (HS 578T breast): 698 nM
- TGI (HS 578T breast): 2520 nM
- GI50 (HT29 colon): 64.2 nM
- TGI (HT29 colon): > 100000 nM
- GI50 (IGROV1 ovarian): 434 nM
- TGI (IGROV1 ovarian): 3110 nM
- GI50 (K-562 leukemia): 114 nM
- TGI (K-562 leukemia): 300 nM
- GI50 (KM12 colon): 1210 nM
- TGI (KM12 colon): > 100000 nM
- GI50 (LOX IMVI melanoma): 41.8 nM
- TGI (LOX IMVI melanoma): 992 nM
- GI50 (M14 melanoma): 12.5 nM
- TGI (M14 melanoma): 117 nM
- TGI (MALME-3M melanoma): 30.9 nM
- GI50 (MCF7 breast): 717 nM
- TGI (MCF7 breast): > 100000 nM
- GI50 (MDA-MB-231 breast): 78.3 nM
- TGI (MDA-MB-231 breast): 2520 nM
- GI50 (MDA-MB-435 melanoma): 62.2 nM
- TGI (MDA-MB-435 melanoma): > 100000 nM
- GI50 (MDA-MB-468 breast): 1060 nM
- TGI (MDA-MB-468 breast): 6560 nM
- GI50 (MOLT-4 leukemia): 97.5 nM
- TGI (MOLT-4 leukemia): 238 nM
- GI50 (NCI-H226 lung): 312 nM
- TGI (NCI-H226 lung): 4190 nM
- GI50 (NCI-H23 lung): 98.9 nM
- TGI (NCI-H23 lung): 1260 nM
- GI50 (NCI-H322M lung): 1330 nM
- TGI (NCI-H322M lung): > 100000 nM
- GI50 (NCI-H460 NSCLC): 745 nM
- TGI (NCI-H460 NSCLC): > 100000 nM
- GI50 (NCI-H522 lung): 484 nM
- TGI (NCI-H522 lung): 5650 nM
- GI50 (NCI/ADR-RES ovarian): 1030 nM
- TGI (NCI/ADR-RES ovarian): 4650 nM
- GI50 (OVCAR-3 ovarian): 2410 nM
- TGI (OVCAR-3 ovarian): 82100 nM
- GI50 (OVCAR-4 ovarian): 3640 nM
- TGI (OVCAR-4 ovarian): > 100000 nM
- GI50 (OVCAR-5 ovarian): 677 nM
- TGI (OVCAR-5 ovarian): 9850 nM
- GI50 (OVCAR-8 ovarian): 746 nM
- TGI (OVCAR-8 ovarian): > 100000 nM
- GI50 (PC-3 prostate): 1420 nM
- TGI (PC-3 prostate): > 100000 nM
- GI50 (RPMI-8226 leukemia): 198 nM
- TGI (RPMI-8226 leukemia): 847 nM
- GI50 (RXF 393 renal): 159 nM
- TGI (RXF 393 renal): 1600 nM
- GI50 (SF-268 CNS): 39.5 nM
- TGI (SF-268 CNS): 263 nM
- GI50 (SF-295 CNS): 516 nM
- TGI (SF-295 CNS): > 100000 nM
- GI50 (SF-539 CNS): 1070 nM
- TGI (SF-539 CNS): 3060 nM
- GI50 (SK-MEL-28 melanoma): 16.7 nM
- TGI (SK-MEL-28 melanoma): 68 nM
- GI50 (SK-MEL-5 melanoma): 17.1 nM
- TGI (SK-MEL-5 melanoma): 1680 nM
- GI50 (SK-OV-3 ovarian): 1790 nM
- TGI (SK-OV-3 ovarian): > 100000 nM
- GI50 (SN12C renal): 461 nM
- TGI (SN12C renal): 4710 nM
- GI50 (SNB-19 CNS): 2630 nM
- TGI (SNB-19 CNS): > 100000 nM
- GI50 (SNB-75 CNS): 1300 nM
- TGI (SNB-75 CNS): 4360 nM
- GI50 (SW-620 colon): 470 nM
- TGI (SW-620 colon): 8510 nM
- GI50 (T-47D breast): 1200 nM
- TGI (T-47D breast): 6700 nM
- GI50 (TK-10 renal): 311 nM
- TGI (TK-10 renal): 3520 nM
- GI50 (U251 glioblastoma): 486 nM
- TGI (U251 glioblastoma): 8260 nM
- GI50 (UACC-257 melanoma): 26.6 nM
- TGI (UACC-257 melanoma): 138 nM
- GI50 (UACC-62 melanoma): 15.2 nM
- TGI (UACC-62 melanoma): 106 nM
- GI50 (UO-31 renal): 427 nM
- TGI (UO-31 renal): 2220 nM

Reference: PubChem BioAssay (NCI)
